Reference: US9284309B2, “Di- and tri-heteroaryl derivatives as inhibitors of protein aggregation” (Neuropore Therapies, Inc., priority 2012, dated 2016)

The compounds below were run against T1, α-synuclein (Homo sapiens, UniProt P37840) (assay: calcein assay of membrane integrity (reversal of α-synuclein-mediated disruption of cell membranes, FLIPR)). Details: 0.01 μM test compound; neuronal cells infected with LV-α-synuclein, 24 h treatment in serum free media, calcein retention.
T1 construct: expressed in transfected cells
Assay type: cell-based
Experimental: (b) Neuronal Activity/Integrity. Toxic aggregates of α-synuclein disrupt the integrity of cell membranes. The disruptive effect of α-synuclein and the ability of test compounds to reverse the α-synuclein-mediated disruption of cell membranes are measured using calcein. Calcein is a fluorescent marker that is retained in healthy cells but is not retained in cells with diminished cellular integrity. To ascertain the effects on neuronal activity, cells are infected with LV-α-synuclein for 24 h, treated with test compound at a range of concentrations, for example 0.01-10 μM, for 24 h in serum free media, loaded with Fluo-4 or calcein, and analyzed by FLIPR assay to determine Ca^2+ and calcein levels. […] Test compounds are evaluated for the ability to restore concentrations of Ca^2+ to those in cells not infected with LV-α-synuclein. […] Test compounds are evaluated, in a concentration-dependent manner, for their ability to reverse the effect of α-synuclein on levels of calcein.

Percent reversal of α-Syn mediated disruption of cell integrity | Structure (SMILES)
110% | CCCCn1nnc(C(Cc2c[nH]c3ccccc23)NC(=O)c2cnc(N3CCN(C)CC3)s2)n1 (stereo not drawn) [Example 5, N-(1-(2-butyl-2H-tetrazol-5-yl)-2-(1H-indol-3-yl)ethyl)-2-(4-methylpiperazin-1-yl)thiazole-5-carboxamide]
137% | CCc1csc(C(Cc2c[nH]c3ccccc23)NC(=O)c2cnc(N3CCN(C)CC3)s2)n1 (stereo not drawn) [Example 6, N-(1-(4-ethylthiazol-2-yl)-2-(1H-indol-3-yl)ethyl)-2-(4-methylpiperazin-1-yl)thiazole-5-carboxamide]
189% | CCCCNC(=N)C(Cc1c[nH]c2ccccc12)NC(=O)c1cnc(N2CCN(C)CC2)s1 (stereo not drawn) [Example 7, N-(1-(butylamino)-1-imino-3-(1H-indol-3-yl)propan-2-yl)-2-(4-methylpiperazin-1-yl)thiazole-5-carboxamide]
135% | CCCCNNC(=O)C(Cc1c[nH]c2ccccc12)NC(=O)c1cnc(N2CCN(C)CC2)s1 (stereo not drawn) [Example 8, N-(1-(2-butylhydrazinyl)-3-(1H-indol-3-yl)-1-oxopropan-2-yl)-2-(4-methylpiperazin-1-yl)thiazole-5-carboxamide]
187% | CCCc1nnc(C(Cc2c[nH]c3ccccc23)NC(=O)c2cnc(N3CCN(C)CC3)s2)s1 (stereo not drawn) [Example 9, N-(2-(1H-indol-3-yl)-1-(5-propyl-1,3,4-thiadiazol-2-yl)ethyl)-2-(4-methylpiperazin-1-yl)thiazole-5-carboxamide]
115% | CCCc1nnc(C(Cc2c[nH]c3ccccc23)NC(=O)c2cnc(N3CCN(C)CC3)s2)[nH]1 (stereo not drawn) [Example 10, N-(2-(1H-indol-3-yl)-1-(5-propyl-4H-1,2,4-triazol-3-yl)ethyl)-2-(4-methylpiperazin-1-yl)thiazole-5-carboxamide]
